# From ChEMBL document CHEMBL4190187, “Discovery of pyrazolopyrimidine derivatives as novel inhibitors of ataxia telangiectasia and rad3 related protein (ATR)” (Bioorg Med Chem Lett, 2017)
# Experiments:
# [1] = test system: Mast/stem cell growth factor receptor Kit (Homo sapiens), P10721 [D816H]; test: Inhibition of recombinant human cKit D816H mutant (544 to end residues) at 1 uM using GGMEDIYFEFMGGKKK as substrate after 40 mins in presence of [gamma-33P]ATP by scintillation counting method
# [2] = target: Tyrosine-protein kinase CSK (Homo sapiens) (UniProt P41240); test: Inhibition of recombinant full-length human CSK at 1 uM using poly(Glu,Tyr) 4:1 as substrate after 40 mins in presence of [gamma-33P]ATP by scintillation counting method
# Chain of Tyrosine-protein kinase CSK (Homo sapiens) (P41240 2-450 limits assumed): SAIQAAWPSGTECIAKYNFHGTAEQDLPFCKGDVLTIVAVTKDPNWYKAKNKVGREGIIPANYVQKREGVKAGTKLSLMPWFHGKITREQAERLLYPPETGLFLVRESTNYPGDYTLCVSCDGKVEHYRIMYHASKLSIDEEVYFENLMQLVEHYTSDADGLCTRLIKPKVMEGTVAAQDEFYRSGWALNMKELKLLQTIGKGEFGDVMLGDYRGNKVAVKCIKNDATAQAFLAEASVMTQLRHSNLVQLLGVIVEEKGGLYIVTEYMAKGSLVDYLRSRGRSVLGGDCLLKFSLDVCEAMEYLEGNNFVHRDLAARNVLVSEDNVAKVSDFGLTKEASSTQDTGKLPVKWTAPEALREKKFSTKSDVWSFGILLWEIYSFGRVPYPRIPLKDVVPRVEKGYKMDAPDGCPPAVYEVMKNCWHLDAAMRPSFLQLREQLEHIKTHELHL
# [3] = target: RAC-alpha serine/threonine-protein kinase (Homo sapiens) (UniProt P31749); test: Inhibition of recombinant full-length human PKBalpha at 1 uM using GRPRTSSFAEGKK as substrate after 40 mins in presence of [gamma-33P]ATP by scintillation counting method
# Chain of RAC-alpha serine/threonine-protein kinase (Homo sapiens) (P31749 whole entry, the tested form may be a part): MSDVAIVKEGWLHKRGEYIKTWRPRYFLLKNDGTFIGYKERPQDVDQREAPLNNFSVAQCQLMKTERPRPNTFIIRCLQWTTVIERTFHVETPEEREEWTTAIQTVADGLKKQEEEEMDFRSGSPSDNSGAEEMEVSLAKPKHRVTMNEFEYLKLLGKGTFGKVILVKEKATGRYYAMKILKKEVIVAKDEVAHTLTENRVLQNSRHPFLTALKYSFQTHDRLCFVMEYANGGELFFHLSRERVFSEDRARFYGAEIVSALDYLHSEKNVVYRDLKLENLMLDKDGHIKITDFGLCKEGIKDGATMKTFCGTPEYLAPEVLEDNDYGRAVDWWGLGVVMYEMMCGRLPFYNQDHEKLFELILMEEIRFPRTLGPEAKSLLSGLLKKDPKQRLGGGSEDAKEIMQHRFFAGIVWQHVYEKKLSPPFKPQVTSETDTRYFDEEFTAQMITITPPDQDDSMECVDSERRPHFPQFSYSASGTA
# [4] = target: TRAF2 and NCK-interacting protein kinase (Homo sapiens) (UniProt Q9UKE5); test: Inhibition of recombinant human TNIK (1 to 367 residues) at 1 uM using RLGRDKYKTLRQIRQ as substrate after 40 mins in presence of [gamma-33P]ATP by scintillation counting method
# [5] = target: Serine/threonine-protein kinase PLK2 (Homo sapiens) (UniProt Q9NYY3); test: Inhibition of recombinant human Snk (65 to 409 residues) at 1 uM using casein as substrate after 40 mins in presence of [gamma-33P]ATP by scintillation counting method
# [6] = target: CDK18/Cyclin Y (Homo sapiens) (UniProt Q07002+Q8ND76); test: Inhibition of recombinant full-length human CDK18/Cyclin Y at 1 uM using YRRAAVPPSPSLSRHSSPHQS(p)EDEEE as substrate after 40 mins in presence of [gamma-33P]ATP by scintillation counting method; type: protein-complex assay
# [7] = target: Calcium/calmodulin-dependent protein kinase type II subunit gamma (Homo sapiens) (UniProt Q13555); test: Inhibition of recombinant human CAMK2gamma (1 to 330 residues) at 1 uM using […] after 40 mins in presence of [gamma-33P]ATP by scintillation counting method
# [8] = target: Ephrin type-B receptor 4 (Homo sapiens) (UniProt P54760); test: Inhibition of recombinant human EPHB4 (561 to end residues) at 1 uM using poly(Glu,Tyr) 4:1 as substrate after 40 mins in presence of [gamma-33P]ATP by scintillation counting method
# [9] = organism: Mus musculus; test: Inhibition of recombinant full-length mouse p110a/recombinant p65a (1 to 571 residues) at 1 uM using phosphatidylinositol 4,5-bisphosphate as substrate after 40 mins in presence of [gamma-33P]ATP by scintillation counting method
# [10] = Metabolic stability in human liver microsomes assessed as compound remaining at 1 uM in presence of NADPH as cofactor measured after 30 mins by LC-MS/MS method; type: ADME, microsome; conditions: read-out: Stability
# [11] = target: Serine/threonine-protein kinase TAO3 (Homo sapiens) (UniProt Q9H2K8); test: Inhibition of recombinant human TAO3 (1 to 411 residues) at 1 uM using myelin basic protein as substrate after 40 mins in presence of [gamma-33P]ATP by scintillation counting method
# Chain of Serine/threonine-protein kinase TAO3 (Homo sapiens) (Q9H2K8 whole entry, the tested form may be a part): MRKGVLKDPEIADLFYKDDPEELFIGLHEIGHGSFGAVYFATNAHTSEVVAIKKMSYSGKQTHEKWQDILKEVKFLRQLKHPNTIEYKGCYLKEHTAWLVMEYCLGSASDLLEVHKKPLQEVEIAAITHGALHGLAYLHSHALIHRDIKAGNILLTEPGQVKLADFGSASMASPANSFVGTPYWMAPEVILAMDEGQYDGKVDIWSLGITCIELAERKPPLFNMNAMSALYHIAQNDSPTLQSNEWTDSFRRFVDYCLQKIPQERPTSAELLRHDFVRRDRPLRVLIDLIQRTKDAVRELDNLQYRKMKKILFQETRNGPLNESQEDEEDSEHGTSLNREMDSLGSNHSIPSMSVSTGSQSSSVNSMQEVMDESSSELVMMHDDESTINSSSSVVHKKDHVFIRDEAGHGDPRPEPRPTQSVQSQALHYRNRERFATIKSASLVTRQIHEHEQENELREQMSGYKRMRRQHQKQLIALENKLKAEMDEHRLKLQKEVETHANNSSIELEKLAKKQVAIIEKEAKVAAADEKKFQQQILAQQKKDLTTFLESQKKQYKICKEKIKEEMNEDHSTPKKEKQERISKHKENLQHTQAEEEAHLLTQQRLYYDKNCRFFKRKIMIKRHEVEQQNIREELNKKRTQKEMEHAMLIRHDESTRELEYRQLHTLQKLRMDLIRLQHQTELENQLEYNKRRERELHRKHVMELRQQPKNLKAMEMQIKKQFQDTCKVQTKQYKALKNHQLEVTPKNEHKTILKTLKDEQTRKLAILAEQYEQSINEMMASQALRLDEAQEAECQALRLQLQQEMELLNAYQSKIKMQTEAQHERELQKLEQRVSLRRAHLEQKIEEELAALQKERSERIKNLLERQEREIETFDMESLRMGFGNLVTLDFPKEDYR
# [12] = test system: RAC-gamma serine/threonine-protein kinase (Homo sapiens), Q9Y243 [S472D]; test: Inhibition of recombinant human PKBgamma S472D mutant (117 to end residues) at 1 uM using GRPRTSSFAEGKK as substrate after 40 mins in presence of [gamma-33P]ATP by scintillation counting method
# Chain of RAC-gamma serine/threonine-protein kinase (Homo sapiens), Q9Y243 [S472D] (Q9Y243 whole entry S472D, the tested form may be a part): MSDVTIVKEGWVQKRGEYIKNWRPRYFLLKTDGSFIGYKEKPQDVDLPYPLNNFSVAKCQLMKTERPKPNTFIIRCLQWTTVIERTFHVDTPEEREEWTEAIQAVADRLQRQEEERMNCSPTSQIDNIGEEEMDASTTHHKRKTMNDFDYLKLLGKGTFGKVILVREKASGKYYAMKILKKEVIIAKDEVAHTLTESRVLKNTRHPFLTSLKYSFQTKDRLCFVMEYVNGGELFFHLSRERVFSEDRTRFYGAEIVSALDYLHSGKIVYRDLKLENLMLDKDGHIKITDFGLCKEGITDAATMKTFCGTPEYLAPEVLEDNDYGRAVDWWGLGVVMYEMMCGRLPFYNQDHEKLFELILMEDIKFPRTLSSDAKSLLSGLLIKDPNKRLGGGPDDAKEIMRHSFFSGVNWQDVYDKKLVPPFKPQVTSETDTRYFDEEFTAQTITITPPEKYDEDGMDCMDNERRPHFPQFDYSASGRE
# [13] = target: Serine/threonine-protein kinase ULK1 (Homo sapiens) (UniProt O75385); test: Inhibition of recombinant human ULK1 (1 to 314 residues) at 1 uM using casein as substrate after 40 mins in presence of [gamma-33P]ATP by scintillation counting method
# [14] = target: Death-associated protein kinase 1 (Homo sapiens) (UniProt P53355); test: Inhibition of recombinant human DAPK1 (1 to 296 residues) at 1 uM using KKLNRTLSFAEPG as substrate after 40 mins in presence of [gamma-33P]ATP by scintillation counting method
# [15] = target: Serine/threonine-protein kinase BRSK2 (Homo sapiens) (UniProt Q8IWQ3); test: Inhibition of recombinant human BrSK2 (2 to end residues) at 1 uM using KKLNRTLSFAEPG as substrate after 40 mins in presence of [gamma-33P]ATP by scintillation counting method
# [16] = target: Tau-tubulin kinase 2 (Homo sapiens) (UniProt Q6IQ55); test: Inhibition of recombinant human TTBK2 (1 to 331 residues) at 1 uM using casein as substrate after 40 mins in presence of [gamma-33P]ATP by scintillation counting method
# [17] = target: PI3K p110 beta/p85 beta (Mus musculus) (UniProt Q8BTI9+O08908); test: Inhibition of recombinant full-length mouse p110b/p85b at 1 uM using phosphatidylinositol 4,5-bisphosphate as substrate after 40 mins in presence of [gamma-33P]ATP by scintillation counting method; type: protein-complex assay
# [18] = target: Mitogen-activated protein kinase kinase kinase 10 (Homo sapiens) (UniProt Q02779); test: Inhibition of recombinant human MLK2 (1 to 449 residues) at 1 uM using myelin basic protein as substrate after 40 mins in presence of [gamma-33P]ATP by scintillation counting method
# [19] = target: Receptor-type tyrosine-protein kinase FLT3 (Homo sapiens) (UniProt P36888); test: Inhibition of recombinant human Flt3 (564 to end residues) at 1 uM using EAIYAAPFAKKK as substrate after 40 mins in presence of [gamma-33P]ATP by scintillation counting method
# Chain of Receptor-type tyrosine-protein kinase FLT3 (Homo sapiens) (P36888 whole entry): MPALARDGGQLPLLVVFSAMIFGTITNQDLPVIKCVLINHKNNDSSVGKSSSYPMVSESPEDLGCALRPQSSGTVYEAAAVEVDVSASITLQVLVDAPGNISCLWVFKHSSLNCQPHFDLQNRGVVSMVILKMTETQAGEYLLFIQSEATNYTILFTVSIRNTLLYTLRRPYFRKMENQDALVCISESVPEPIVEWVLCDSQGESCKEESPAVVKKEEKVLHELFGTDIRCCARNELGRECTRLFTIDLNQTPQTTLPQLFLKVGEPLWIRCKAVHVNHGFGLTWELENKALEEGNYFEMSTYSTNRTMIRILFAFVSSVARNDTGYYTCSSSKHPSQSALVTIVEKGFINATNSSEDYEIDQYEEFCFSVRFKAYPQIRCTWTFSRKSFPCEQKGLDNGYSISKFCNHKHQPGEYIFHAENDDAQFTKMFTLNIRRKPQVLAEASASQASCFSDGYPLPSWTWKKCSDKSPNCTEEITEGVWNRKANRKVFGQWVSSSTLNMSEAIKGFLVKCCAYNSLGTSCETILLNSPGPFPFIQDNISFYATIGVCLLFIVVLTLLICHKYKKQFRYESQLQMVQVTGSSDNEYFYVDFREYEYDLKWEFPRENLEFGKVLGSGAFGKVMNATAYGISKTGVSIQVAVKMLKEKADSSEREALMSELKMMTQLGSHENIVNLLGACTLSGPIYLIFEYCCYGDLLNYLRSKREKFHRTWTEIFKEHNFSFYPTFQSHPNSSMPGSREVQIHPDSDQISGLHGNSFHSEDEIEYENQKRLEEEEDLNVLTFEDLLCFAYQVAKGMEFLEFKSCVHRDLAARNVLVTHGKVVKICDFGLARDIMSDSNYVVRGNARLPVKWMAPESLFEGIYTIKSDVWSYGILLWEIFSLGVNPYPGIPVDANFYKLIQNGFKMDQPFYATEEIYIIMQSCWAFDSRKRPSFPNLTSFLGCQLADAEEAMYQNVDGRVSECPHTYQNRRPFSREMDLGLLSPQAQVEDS
# [20] = target: Inhibitor of nuclear factor kappa-B kinase subunit beta (Homo sapiens) (UniProt O14920); test: Inhibition of recombinant full-length human IKKbeta at 1 uM using peptide as substrate after 40 mins in presence of [gamma-33P]ATP by scintillation counting method
# [21] = target: Serine/threonine-protein kinase NIM1 (Homo sapiens) (UniProt Q8IY84); test: Inhibition of recombinant full-length human NIM1 at 1 uM using KKKVSRSGLYRSPSMPENLNRPR as substrate after 40 mins in presence of [gamma-33P]ATP by scintillation counting method
# Chain of Serine/threonine-protein kinase NIM1 (Homo sapiens) (Q8IY84 whole entry, the tested form may be a part): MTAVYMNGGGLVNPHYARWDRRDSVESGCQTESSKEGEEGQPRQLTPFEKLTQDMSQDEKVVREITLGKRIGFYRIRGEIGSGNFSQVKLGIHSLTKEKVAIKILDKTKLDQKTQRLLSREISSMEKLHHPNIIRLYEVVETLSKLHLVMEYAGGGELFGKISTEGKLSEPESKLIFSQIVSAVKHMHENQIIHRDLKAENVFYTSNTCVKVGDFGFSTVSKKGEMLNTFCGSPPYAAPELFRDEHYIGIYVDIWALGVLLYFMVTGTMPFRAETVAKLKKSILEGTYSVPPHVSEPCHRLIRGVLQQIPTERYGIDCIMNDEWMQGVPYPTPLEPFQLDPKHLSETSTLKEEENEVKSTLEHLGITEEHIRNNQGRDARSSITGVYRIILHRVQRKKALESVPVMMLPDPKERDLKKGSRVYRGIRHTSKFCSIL
# [22] = target: Ephrin type-B receptor 3 (Homo sapiens) (UniProt P54753); test: Inhibition of recombinant human EPHB3 (599 to 920 residues) at 1 uM using poly(Glu,Tyr) 4:1 as substrate after 40 mins in presence of [gamma-33P]ATP by scintillation counting method
# Chain of Ephrin type-B receptor 3 (Homo sapiens) (P54753 whole entry, the tested form may be a part): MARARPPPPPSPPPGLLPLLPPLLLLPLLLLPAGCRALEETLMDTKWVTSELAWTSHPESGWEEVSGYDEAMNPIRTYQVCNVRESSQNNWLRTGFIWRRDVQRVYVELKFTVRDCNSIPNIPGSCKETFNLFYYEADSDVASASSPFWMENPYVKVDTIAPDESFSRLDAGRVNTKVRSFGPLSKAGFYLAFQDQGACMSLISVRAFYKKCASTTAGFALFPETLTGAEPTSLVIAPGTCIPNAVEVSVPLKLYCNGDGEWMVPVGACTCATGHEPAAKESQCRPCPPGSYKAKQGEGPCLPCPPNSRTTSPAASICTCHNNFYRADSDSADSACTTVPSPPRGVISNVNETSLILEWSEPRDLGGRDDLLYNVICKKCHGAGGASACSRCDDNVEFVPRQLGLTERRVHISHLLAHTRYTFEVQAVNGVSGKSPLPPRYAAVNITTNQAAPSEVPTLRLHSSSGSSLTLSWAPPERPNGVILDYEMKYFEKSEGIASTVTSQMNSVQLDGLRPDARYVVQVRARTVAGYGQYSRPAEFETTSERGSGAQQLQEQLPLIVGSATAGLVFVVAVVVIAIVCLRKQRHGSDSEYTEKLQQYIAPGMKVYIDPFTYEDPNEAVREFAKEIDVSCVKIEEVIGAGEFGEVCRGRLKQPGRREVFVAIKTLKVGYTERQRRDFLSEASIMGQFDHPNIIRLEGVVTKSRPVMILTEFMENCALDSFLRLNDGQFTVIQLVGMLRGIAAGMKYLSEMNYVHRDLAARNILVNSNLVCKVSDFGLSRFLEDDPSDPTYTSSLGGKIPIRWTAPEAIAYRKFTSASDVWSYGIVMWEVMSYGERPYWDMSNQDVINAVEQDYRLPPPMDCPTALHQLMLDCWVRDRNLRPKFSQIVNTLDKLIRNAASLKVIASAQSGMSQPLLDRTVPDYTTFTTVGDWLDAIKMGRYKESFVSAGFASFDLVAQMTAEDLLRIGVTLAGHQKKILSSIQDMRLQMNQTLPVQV
# [23] = test system: Hepatocyte growth factor receptor (Homo sapiens), P08581 [D1246H]; test: Inhibition of recombinant human Met D1246H mutant (974 to end residues) at 1 uM using KKKGQEEEYVFIE as substrate after 40 mins in presence of [gamma-33P]ATP by scintillation counting method
# [24] = target: Mast/stem cell growth factor receptor Kit (Homo sapiens) (UniProt P10721); test: Inhibition of recombinant human cKit (544 to end residues) at 1 uM using poly(Glu,Tyr) 4:1 as substrate after 40 mins in presence of [gamma-33P]ATP by scintillation counting method
structure (smiles),measurement,setting,value
CS(=O)(=O)c1ccc(-n2nc(-c3cnc4[nH]ccc4c3)c3c(N)ncnc32)cc1,inhibition,[1],85%
same,inhibition,[2],3%
same,inhibition,[3],-1%
same,inhibition,[4],-9%
same,inhibition,[5],-6%
same,inhibition,[6],0%
same,inhibition,[7],6%
same,inhibition,[8],27%
same,inhibition,[9],7%
same,"remaining at 0.5 h, 1 µM",[10],83%
same,inhibition,[11],5%
same,inhibition,[12],-7%
same,inhibition,[13],-1%
same,inhibition,[14],-2%
same,inhibition,[15],3%
same,inhibition,[16],4%
same,inhibition,[17],1%
same,inhibition,[18],-1%
same,inhibition,[19],16%
same,inhibition,[20],-3%
same,inhibition,[21],-5%
same,inhibition,[22],-2%
same,inhibition,[23],1%
same,inhibition,[24],4%
